# Like-named read-outs stand apart in the source and are kept apart here.
# Experiments:
# [1] = target: VIM-1 (Pseudomonas aeruginosa (strain ATCC 15692 / DSM 22644 / CIP 104116 / JCM 14847 / LMG 12228 / 1C / PRS 101 / PAO1), UniProt A0A0F7KYQ8); assay: Enzyme activity: determination of IC50, fluorescence assay with CCF2-FA substrate (VIM-1); type: biochemical
# [2] = target: IMP-1 (Serratia marcescens, UniProt P52699); assay: biochemical; type: biochemical; conditions: read-out: IMP-1 IC50
# [3] = target: NDM-1 (Klebsiella pneumoniae, UniProt C7C422); assay: biochemical; type: biochemical; conditions: read-out: NDM-1 IC50
# Sequence of NDM-1 (C7C422 whole entry, looked up, species assumed): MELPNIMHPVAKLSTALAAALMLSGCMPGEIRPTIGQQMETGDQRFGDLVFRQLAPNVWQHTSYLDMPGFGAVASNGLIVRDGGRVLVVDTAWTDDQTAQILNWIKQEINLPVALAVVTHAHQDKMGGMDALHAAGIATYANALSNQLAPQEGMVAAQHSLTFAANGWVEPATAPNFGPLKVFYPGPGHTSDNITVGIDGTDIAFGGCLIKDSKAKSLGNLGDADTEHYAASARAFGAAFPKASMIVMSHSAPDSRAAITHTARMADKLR
# [4] = system: Escherichia coli expressing NDM-1 (CLB30016); assay: Antibiotic potentiation activity: synergistic concentration (MITC95) with imipenem, OD600 growth; type: cell-based; conditions: for Escherichia coli expressing NDM-1 (CLB 30016) MITC95: concentration giving 95% inhibition of bacterial growth
# Method: (§1) Antibiotic Potentiation Activity: Determination of Synergistic Concentration
# (§2) The bacterial strains tested included the clinical strains Escherichia coli expressing NDM-1 (CLB30005, CLB30016), Serratia marcescens expressing IMP-1 (CL5741), and Klebsiella pneumoniae expressing VIM-1 (IHMA599644) Inhibitor activity was measured in the presence and absence of imipenem in a 384-well microplate.
# (§3) The clinical strains CLB30016, CL5741 and IHMA599644 were grown on trypticase soy agar containing 5% sheep's blood. The clinical strain CLB30005 was grown on Mueller Hinton broth agar containing 8 ug/ml imipenem. The bacteria on agar plates were incubated at 35° C. with humidity overnight. The following day, individual colonies from each clinical strain were picked and resuspended in 5 ml saline to attain an OD600 of 0.14, 0.11, 0.15 and 0.13, for CLB30005, CLB30016, CL5741 and IHMA599644, respectively. These were further diluted 1:100 into 1.1×CAMHB and used to inoculate the test wells as described below.
# (§4) Imipenem in 10 mM 3-(N-morpholino)propanesulfonic acid (MOPS, pH 7) was stored in single use aliquots at −80° C. […] On the day of the assay, 4 μl of antibiotic was added to 45 ul of bacteria followed by 1 μl of test compound and mixed by pipetting and with an orbital shaker. The concentration of antibiotic used in the assay was 4 μg/ml, or optionally 1 μg/ml. Microplates were covered and incubated at 35° C. for 22 hours to 24 hours. At the end of the incubation, absorbance was determined using a spectrophotometer.
# [5] = system: Serratia marcescens expressing IMP-1 (CL5741); assay: as above; type: cell-based; conditions: for Serratia marcescens expressing IMP-1 (CL5741) MITC95: concentration giving 95% inhibition of bacterial growth
# Method: as §1, §2, §3, §4
# [6] = system: Klebsiella pneumoniae expressing VIM-1 (IHMA599644); assay: as above; type: cell-based; conditions: for Klebsiella pneumoniae expressing VIM-1 (IHMA 599644) MITC95: concentration giving 95% inhibition of bacterial growth
# Method: as §1, §2, §3, §4
# [7] = VIM-1 enzyme, CCF2-FA fluorescence assay, read-out: VIM-1 IC50
# [8] = IMP-1 enzyme, CCF2-FA fluorescence assay
# [9] = NDM-1 enzyme, CCF2-FA fluorescence assay
# [10] = Escherichia coli expressing NDM-1 (CLB30016), 95% growth inhibition
# [11] = Serratia marcescens expressing IMP-1 (CL5741), 95% growth inhibition
# [12] = Klebsiella pneumoniae expressing VIM-1 (IHMA599644), 95% growth inhibition
# [13] = fluorescence assay with CCF2-FA substrate, read-out: VIM-1 IC50
# [14] = fluorescence assay with CCF2-FA substrate
# [15] = CLB30016 (NDM-1), 95% inhibition of bacterial growth
# [16] = CL5741 (IMP-1), 95% inhibition of bacterial growth
# [17] = IHMA599644 (VIM-1), 95% inhibition of bacterial growth
# [18] = VIM-1 enzyme, CCF2-FA substrate, read-out: VIM-1 IC50
# [19] = IMP-1 enzyme, CCF2-FA substrate
# [20] = NDM-1 enzyme, CCF2-FA substrate
# [21] = (CLB30016, NDM-1), 95% growth inhibition
# [22] = Serratia marcescens CL5741 (IMP-1), 95% growth inhibition
# [23] = Klebsiella pneumoniae IHMA599644 (VIM-1), 95% growth inhibition
# Sequence of IMP-1 (P52699 whole entry, looked up): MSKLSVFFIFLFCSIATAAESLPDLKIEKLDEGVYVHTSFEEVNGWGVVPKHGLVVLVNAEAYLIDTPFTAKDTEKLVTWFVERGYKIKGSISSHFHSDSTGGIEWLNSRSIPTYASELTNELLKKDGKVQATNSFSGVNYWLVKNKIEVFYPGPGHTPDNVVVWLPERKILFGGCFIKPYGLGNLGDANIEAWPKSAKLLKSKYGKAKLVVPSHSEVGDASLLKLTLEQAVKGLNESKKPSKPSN
SMILES,"IC50 [1, 7] [nM]","IC50 [2, 8] [nM]","IC50 [3, 9] [nM]","Escherichia coli MITC95 [4, 10] [µM]","Serratia marcescens MITC95 [5, 11] [µM]","Klebsiella pneumoniae MITC95 [6, 12] [µM]","IC50 [1, 13] [nM]","IC50 [2, 14] [nM]","IC50 [3, 14] [nM]","IC50 [2, 19] [nM]","IC50 [3, 20] [nM]","Escherichia coli MITC95 [4, 21] [µM]","Serratia marcescens MITC95 [5, 22] [µM]","Klebsiella pneumoniae MITC95 [6, 23] [µM]",other results
"NS(=O)(=O)c1cccc(-c2ccc(C3=CCNC3)cc2)c1-c1nn[nH]n1 [Example 285, 4′-(2,5-dihydro-1H-pyrrol-3-yl)-2-(2H-tetrazol-5-yl)-[1,1′-biphenyl]-3-sulfonamide]",18,25.1,2.83,0.3906,0.7813,3.125,,,,,,,,,
"NS(=O)(=O)c1cccc(-c2ccc(CNCCn3ccnn3)cc2)c1-c1nnn[nH]1 [Example 350, 2-(1H-tetrazol-5-yl)-4′-({[2-(1H-1,2,3-triazol-1-yl)ethyl]amino}methyl)biphenyl-3-sulfonamide]",246,39.7,5.8,1.172,1.563,>200,,,,,,,,,
"NS(=O)(=O)c1c(C(F)(F)F)ccc([C@H]2CC[C@H](N)CC2)c1-c1nnn[nH]1 [Example 820, 3-((1r,4r)-4-aminocyclohexyl)-2-(1H-tetrazol-5-yl)-6-(trifluoromethyl)benzenesulfonamide]",,,,,,,0.659,39.4,13.5,,,,,,"Escherichia coli MITC95 [4, 15]: 0.3906 µM; Serratia marcescens MITC95 [5, 16]: 0.7813 µM; Klebsiella pneumoniae MITC95 [6, 17]: 0.7813 µM"
"NS(=O)(=O)c1c(C(F)(F)F)ccc(-c2ccc(C3CCN(CC4CCCNC4)CC3)cc2)c1-c1nnn[nH]1 (stereo not drawn) [Example 673, 4′-[1-(piperidin-3-ylmethyl)piperidin-4-yl]-2-(1H-tetrazol-5-yl)-4-(trifluoromethyl)biphenyl-3-sulfonamide]",,,,,,,,,,1.35,10.1,3.125,3.125,62.5,"IC50 [1, 18]: 9.07 nM"
"NS(=O)(=O)c1cccc(-c2cccc3c2NCCC3)c1-c1nnn[nH]1 [Example 121, 3-(1,2,3,4-tetrahydroquinolin-8-yl)-2-(1H-tetrazol-5-yl)benzenesulfonamide]",,,,,,,187,373,7.37,,,,,,Escherichia coli expressing NDM-1 (CLB 30016) MITC95 [4]: 3.125 µM; Serratia marcescens expressing IMP-1 (CL5741) MITC95 [5]: 25 µM; Klebsiella pneumoniae expressing VIM-1 (IHMA 599644) MITC95 [6]: >200 µM
"CC(C1CCN(c2ccnc(S(N)(=O)=O)c2-c2nnn[nH]2)CC1)N1CCOCC1 (stereo not drawn) [Example 223, 4-[4-(1-morpholin-4-ylethyl)piperidin-1-yl]-3-(1H-tetrazol-5-yl)pyridine-2-sulfonamide]",,,,,,,583,1300,157,,,,,,Escherichia coli expressing NDM-1 (CLB 30016) MITC95 [4]: 4.688 µM; Serratia marcescens expressing IMP-1 (CL5741) MITC95 [5]: 25 µM; Klebsiella pneumoniae expressing VIM-1 (IHMA 599644) MITC95 [6]: 200 µM
"NCCCN1CCC(c2ccc(-c3cccc(S(N)(=O)=O)c3-c3nnn[nH]3)cc2)CC1 [Example 613, 3-[4-[1-(3-aminopropyl)-4-piperidyl]phenyl]-2-(1H-tetrazol-5-yl)benzenesulfonamide]",,,,,,,,,,36.3,14.1,0.25,0.543,18.75,"IC50 [1, 18]: 253 nM"
"NS(=O)(=O)c1cccc(COc2ccccc2)c1-c1nnn[nH]1 [Example 142, 3-(phenoxymethyl)-2-(1H-tetrazol-5-yl)benzenesulfonamide]",,,,,,,419,81,8.2,,,,,,Escherichia coli expressing NDM-1 (CLB 30016) MITC95 [4]: 1.563 µM; Serratia marcescens expressing IMP-1 (CL5741) MITC95 [5]: 6.25 µM; Klebsiella pneumoniae expressing VIM-1 (IHMA 599644) MITC95 [6]: >200 µM
"NCCC1CCC(N2CC(c3ccc(-c4ccc(C(F)(F)F)c(S(N)(=O)=O)c4-c4nnn[nH]4)cc3)C2)CC1 (stereo not drawn) [Example 814, 4′-{1-[4-(2-aminoethyl)cyclohexyl]azetidin-3-yl}-2-(1H-tetrazol-5-yl)-4-(trifluoromethyl)biphenyl-3-sulfonamide]",,,,,,,22.5,12.5,8.08,,,,,,"Escherichia coli MITC95 [4, 15]: 6.25 µM; Serratia marcescens MITC95 [5, 16]: 6.25 µM; Klebsiella pneumoniae MITC95 [6, 17]: 100 µM"
"Nc1ccnc2cc(-c3ccc(C(F)(F)F)c(S(N)(=O)=O)c3-c3nnn[nH]3)ccc12 [Example 478, 3-(4-amino-7-quinolyl)-2-(1-tetrazol-5-yl)-6-(trifluoromethyl)benzenesulfonamide]",0.639,88.1,24.6,0.7813,2.344,0.7813,,,,,,,,,
"NS(=O)(=O)c1cccc(-c2ccc(CN[C@@H]3CC[C@H](O)C3)cc2)c1-c1nnn[nH]1 [Example 369, 4′-({[(1R,3S)-3-hydroxycyclopentyl]amino}methyl)-2-(1H-tetrazol-5-yl)biphenyl-3-sulfonamide]",667,728,25.2,3.125,12.5,200,,,,,,,,,
"NCCS(=O)(=O)c1ccc(-c2ccc(C(F)(F)F)c(S(N)(=O)=O)c2-c2nnn[nH]2)cc1 [Example 736, 4′-[(2-aminoethyl)sulfonyl]-2-(1H-tetrazol-5-yl)-4-(trifluoromethyl)biphenyl-3-sulfonamide]",,,,,,,,,,3.23,3.23,6.25,6.25,6.25,"IC50 [1, 18]: 1.59 nM"
"Nc1ccnc2ccc(-c3cccc(S(N)(=O)=O)c3-c3nnn[nH]3)cc12 [Example 401, 3-(4-amino-6-quinolyl)-2-(1H-tetrazol-5-yl)benzenesulfonamide]",,646,7.31,0.09375,6.25,0.8906,,,,,,,,,"IC50 ([1]; VIM-1 IC50, VIM-1 enzyme, CCF2-FA fluorescence assay): 7.57 nM"
"NS(=O)(=O)c1c(C(F)(F)F)ccc([C@H]2CC[C@H](NCC3CCCN3)CC2)c1-c1nnn[nH]1 (stereo partly drawn) [Example 681, 3-{4-[(pyrrolidin-2-ylmethyl)amino]cyclohex-yl}-2-(1H-tetrazol-5-yl)-6-(trifluoromethyl)benzene sulfonamide]",,,,,,,,,,16.1,8.72,1.563,3.125,6.25,"IC50 ([1]; VIM-1 IC50, VIM-1 enzyme, CCF2-FA substrate): 7.1 nM"
"Nc1ccc(-c2ccc(Br)c(S(N)(=O)=O)c2-c2nn[nH]n2)cn1 [Example 264, 3-(6-aminopyridin-3-yl)-6-bromo-2-(2H-tetrazol-5-yl)benzenesulfonamide]",4.4,16.9,4.61,0.04688,0.3828,1.781,,,,,,,,,
"NS(=O)(=O)c1cccc(-c2ccc(C3CCN(CC4CNC4)CC3)cc2)c1-c1nnn[nH]1 [Example 617, 3-[4-[1-(azetidin-3-ylmethyl)-4-piperidyl]phenyl]-2-(1H-tetrazol-5-yl)benzenesulfonamide]",,,,,,,,,,9.66,10,0.25,0.2969,37.5,"IC50 [1, 18]: 334 nM"

# From patent US9708336B2, “Metallo-beta-lactamase inhibitors” (priority 2014, dated 2017)
